Data on 64 compounds can be found in patent publication US20160002247A1, “8-SUBSTITUTED IMIDAZOPYRIMIDINONE DERIVATIVE HAVING AUTOTAXIN INHIBITORY ACTIVITY” (THE UNIVERSITY OF TOKYO, priority 2013, published 2016).

The target in one test is T1, Human autotaxin enzyme (Homo sapiens, UniProt Q13822).
T1 construct: purchased R&D System
In words: Evaluation of autotaxin inhibitor, Method C (Test Example 3): 18:0 Lyso PC, choline assay, Resorufin fluorescence. It is filed as biochemical. Particulars: Assay Method C, human autotaxin, 18:0 Lyso PC substrate; read-out: Inhibitory Activity. An outline of the steps: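 Human autotaxin in Tris-HCl pH 7.5, 150 mM NaCl, 5 mM MgCl2, 0.05% Triton X-100 reacted 2 h at room temperature with 18:0 Lyso PC (200 μM solution added). Released choline detected via choline oxidase/peroxidase/Amplex-type reagent, resorufin fluorescence (ex 531/em 598 nm); inhibition vs no-compound and no-enzyme controls, concentration-response curve.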
`O=C(O)c1cccc(Cc2cn(CCCC(F)(F)F)c3nc(-c4ccc(Cl)cc4)cn3c2=O)c1` [Compound 826]: the IC50 was in the range of 10 to 100 nM.

In the case of `O=C(O)Cc1cn(CCCC(F)(F)F)c2nc(-c3ccc(Cl)cc3)cn2c1=O` [Compound 827], the IC50 was more than 1000 nM.

For `CCOC(=O)Cc1cn(CCCC(F)(F)F)c2nc(-c3ccc(Cl)cc3)cn2c1=O` [Compound 828], the IC50 was more than 1000 nM.

Regarding `N#CCNC(=O)Cc1cn(CCCC(F)(F)F)c2nc(-c3ccc(Cl)cc3)cn2c1=O` [Compound 829], the IC50 was in the range of 100 to 1000 nM.

`N#CCCNC(=O)Cc1cn(CCCC(F)(F)F)c2nc(-c3ccc(Cl)cc3)cn2c1=O` [Compound 830]: the IC50 was 100 to 1000 nM.

For the compound `CN(CCC#N)C(=O)Cc1cn(CCCC(F)(F)F)c2nc(-c3ccc(Cl)cc3)cn2c1=O` [Compound 831], the IC50 was in the range of 100 to 1000 nM.

For the compound `N#CCCCNC(=O)Cc1cn(CCCC(F)(F)F)c2nc(-c3ccc(Cl)cc3)cn2c1=O` [Compound 832], the IC50 was more than 1000 nM.

As to `O=C(Cc1cn(CCCC(F)(F)F)c2nc(-c3ccc(Cl)cc3)cn2c1=O)N(CCO)CCO` [Compound 833], the IC50 was more than 1000 nM.

Consider `CN(CC#N)C(=O)Cc1cn(CCCC(F)(F)F)c2nc(-c3ccc(Cl)cc3)cn2c1=O` [Compound 834], for which the IC50 lay in the range of 100 to 1000 nM.

As for `N#CNC(=O)Cc1cn(CCCC(F)(F)F)c2nc(-c3ccc(Cl)cc3)cn2c1=O` [Compound 835], the IC50 is more than 1000 nM.

On to `CC1CCCCN1C(=O)Cc1cn(CCCC(F)(F)F)c2nc(-c3ccc(Cl)cc3)cn2c1=O` (stereo not shown) [Compound 836], for which the IC50 was in the range of 10 to 100 nM.

As for `NC(=O)C1CCN(C(=O)Cc2cn(CCCC(F)(F)F)c3nc(-c4ccc(Cl)cc4)cn3c2=O)CC1` [Compound 837], the IC50 was more than 1000 nM.

Consider `O=C(Cc1cn(CCCC(F)(F)F)c2nc(-c3ccc(Cl)cc3)cn2c1=O)N1CCC(O)CC1` [Compound 838], for which the IC50 is more than 1000 nM.

As to `N#CCN(CC#N)C(=O)Cc1cn(CCCC(F)(F)F)c2nc(-c3ccc(Cl)cc3)cn2c1=O` [Compound 839], the IC50 was 100 to 1000 nM.

Regarding `CC(C)(C)OC(=O)NCCNC(=O)Cc1cn(CCCC(F)(F)F)c2nc(-c3ccc(Cl)cc3)cn2c1=O` [Compound 840], the IC50 lay within 100 to 1000 nM.

On to `NC(=O)CNC(=O)Cc1cn(CCCC(F)(F)F)c2nc(-c3ccc(Cl)cc3)cn2c1=O` [Compound 841], for which the IC50 was more than 1000 nM.

Consider `O=C(Cc1cn(CCCC(F)(F)F)c2nc(-c3ccc(Cl)cc3)cn2c1=O)NCc1cc(=O)[nH]o1` [Compound 842], for which the IC50 fell in the range of 100 to 1000 nM.

Regarding `O=C(Cc1cn(CCCC(F)(F)F)c2nc(-c3ccc(Cl)cc3)cn2c1=O)NCCO` [Compound 843], the IC50 is more than 1000 nM.

`O=C(Cc1cn(CCCC(F)(F)F)c2nc(-c3ccc(Cl)cc3)cn2c1=O)NCC(O)CO` (stereo not shown) [Compound 844]: the IC50 is more than 1000 nM.

For the compound `CONC(=O)Cc1cn(CCCC(F)(F)F)c2nc(-c3ccc(Cl)cc3)cn2c1=O` [Compound 845], the IC50 lay within 100 to 1000 nM.

`O=C(Cc1cn(CCCC(F)(F)F)c2nc(-c3ccc(Cl)cc3)cn2c1=O)NC1COC1` [Compound 846]: the IC50 is more than 1000 nM.

`O=C1CN(C(=O)Cc2cn(CCCC(F)(F)F)c3nc(-c4ccc(Cl)cc4)cn3c2=O)CCN1` [Compound 847]: the IC50 is more than 1000 nM.

Take `O=C(Cc1cn(CCCC(F)(F)F)c2nc(-c3ccc(Cl)cc3)cn2c1=O)N[C@@H](CO)Cc1ccccc1` [Compound 848]: the IC50 is more than 1000 nM.

With `CS(=O)(=O)CCNC(=O)Cc1cn(CCCC(F)(F)F)c2nc(-c3ccc(Cl)cc3)cn2c1=O` [Compound 849], the IC50 was more than 1000 nM.

On to `C[C@@H]1COC[C@H](C)N1C(=O)Cc1cn(CCCC(F)(F)F)c2nc(-c3ccc(Cl)cc3)cn2c1=O` [Compound 850], for which the IC50 was in the range of 100 to 1000 nM.

Regarding `CNC(=O)Cc1cn(CCCC(F)(F)F)c2nc(-c3ccc(Cl)cc3)cn2c1=O` [Compound 851], the IC50 was 100 to 1000 nM.

In the case of `O=C(Cc1cn(CCCC(F)(F)F)c2nc(-c3ccc(Cl)cc3)cn2c1=O)N[C@H]1CCN(C2COC2)C1` [Compound 852], the IC50 was more than 1000 nM.

Consider `O=C(Cc1cn(CCCC(F)(F)F)c2nc(-c3ccc(Cl)cc3)cn2c1=O)N1CCN(CCO)CC1` [Compound 853], for which the IC50 was more than 1000 nM.

Take `CN(CC(O)CO)C(=O)Cc1cn(CCCC(F)(F)F)c2nc(-c3ccc(Cl)cc3)cn2c1=O` (stereo not shown) [Compound 854]: the IC50 is more than 1000 nM.

Take `NS(=O)(=O)CCNC(=O)Cc1cn(CCCC(F)(F)F)c2nc(-c3ccc(Cl)cc3)cn2c1=O` [Compound 855]: the IC50 is more than 1000 nM.

Consider `CC(=O)CNC(=O)Cc1cn(CCCC(F)(F)F)c2nc(-c3ccc(Cl)cc3)cn2c1=O` [Compound 856], for which the IC50 is more than 1000 nM.

As for `CC(C)(O)CNC(=O)Cc1cn(CCCC(F)(F)F)c2nc(-c3ccc(Cl)cc3)cn2c1=O` [Compound 857], the IC50 is more than 1000 nM.

As to `O=C(Cc1cn(CCCC(F)(F)F)c2nc(-c3ccc(Cl)cc3)cn2c1=O)NCc1nn[nH]n1` [Compound 858], the IC50 was 10 to 100 nM.

With `N#CC(NC(=O)Cc1cn(CCCC(F)(F)F)c2nc(-c3ccc(Cl)cc3)cn2c1=O)C(N)=O` (stereo not shown) [Compound 859], the IC50 was more than 1000 nM.

Consider `O=C1CCN(C(=O)Cc2cn(CCCC(F)(F)F)c3nc(-c4ccc(Cl)cc4)cn3c2=O)C1` [Compound 860], for which the IC50 was in the range of 100 to 1000 nM.

As for `CCC(CO)(CO)NC(=O)Cc1cn(CCCC(F)(F)F)c2nc(-c3ccc(Cl)cc3)cn2c1=O` [Compound 861], the IC50 is 10 to 100 nM.

Regarding `N#CC1CN(C(=O)Cc2cn(CCCC(F)(F)F)c3nc(-c4ccc(Cl)cc4)cn3c2=O)CCO1` (stereo not shown) [Compound 862], the IC50 was 10 to 100 nM.

Take `Cc1noc(CNC(=O)Cc2cn(CCCC(F)(F)F)c3nc(-c4ccc(Cl)cc4)cn3c2=O)n1` [Compound 863]: the IC50 was in the range of 100 to 1000 nM.

For `CS(=O)(=O)CCOCCNC(=O)Cc1cn(CCCC(F)(F)F)c2nc(-c3ccc(Cl)cc3)cn2c1=O` [Compound 864], the IC50 is more than 1000 nM.

As for `O=C(Cc1cn(CCCC(F)(F)F)c2nc(-c3ccc(Cl)cc3)cn2c1=O)N1CCOCC1` [Compound 865], the IC50 lay within 100 to 1000 nM.

As for `O=C(Cc1cn(CCCC(F)(F)F)c2nc(-c3ccc(Cl)cc3)cn2c1=O)N[C@H](CO)Cc1ccccc1` [Compound 866], the IC50 is more than 1000 nM.

Turning to `C[C@H]1CCCCN1C(=O)Cc1cn(CCCC(F)(F)F)c2nc(-c3ccc(Cl)cc3)cn2c1=O` [Compound 867], the IC50 was in the range of 10 to 100 nM.

The target of a further test is T1, Human autotaxin enzyme. In words: Evaluation of autotaxin inhibitor, Method B (Test Example 2): TG-mTMP fluorescence. In kind it is biochemical. Particulars: Assay Method: Method B (Test Example 2); read-out: Inhibitory Activity (Enzyme Inhibitory Activity, IC50). The method, then: (Method B) Evaluation of Autotaxin Inhibitor
Solution A containing 25 mM Tris-HCl buffer (pH7.5), 100 mM NaCl, 5 mM MgCl2 and 0.1% BSA was prepared. Human autotaxin enzyme (purchased from R&D System) was diluted with Solution A, and 5 μL of which was added to a solution of test compound in DMSO. Furthermore, 5 μl of 0.5 μM TG-mTMP in Solution A was added and allowed to react at room temperature for 2 hours. 5 μl of 150 mM EDTA in Solution A was added to quench the reaction, and the fluorescent dye TokyoGreen, which was produced by the reaction, was detected. The fluorescence was detected using ViewLux (PerkinElmer, Inc.) with an excitation wavelength of 480 nm and a fluorescence wavelength of 540 nm.
With `CCCCn1c(C)cc(=O)n2cc(-c3ccc(Cl)cc3)nc12` [Compound 7], the IC50 was 10 to 100 nM.

Take `CCCCCCn1c(C)cc(=O)n2cc(-c3ccc(Cl)cc3)nc12` [Compound 8]: the IC50 lay in the range of 10 to 100 nM.

For `Cc1cc(=O)n2cc(-c3ccc(Cl)cc3)nc2n1Cc1ccccc1` [Compound 13], the IC50 fell in the range of 10 to 100 nM.

In the case of `CCCCCn1c(C)cc(=O)n2cc(-c3ccc(Br)cc3)nc12` [Compound 18], the IC50 is less than 10 nM.

As to `CCOCCn1c(C)cc(=O)n2cc(-c3ccc(Cl)cc3)nc12` [Compound 26], the IC50 fell in the range of 10 to 100 nM.

For the compound `CCC(=O)Cn1c(C)cc(=O)n2cc(-c3ccc(Cl)cc3)nc12` [Compound 28], the IC50 lay within 10 to 100 nM.

As for `CC(=O)OCCn1c(C)cc(=O)n2cc(-c3ccc(Cl)cc3)nc12` [Compound 29], the IC50 is 10 to 100 nM.

With `CCCC(O)Cn1c(C)cc(=O)n2cc(-c3ccc(Cl)cc3)nc12` (stereo not shown) [Compound 42], the IC50 was 10 to 100 nM.

Turning to `C=CCCCn1c(C)cc(=O)n2cc(-c3ccc(Cl)cc3)nc12` [Compound 43], the IC50 is 10 to 100 nM.

In the case of `CCC/C=C/n1c(C)cc(=O)n2cc(-c3ccc(Cl)cc3)nc12` [Compound 44], the IC50 was in the range of 10 to 100 nM.

Consider `Cc1cc(=O)n2cc(-c3ccc(Cl)cc3)nc2n1CCCCCO` [Compound 45], for which the IC50 fell in the range of 100 to 1000 nM.

In the case of `Cc1cc(=O)n2cc(-c3ccc(Cl)cc3)nc2n1CC(=O)C1CC1` [Compound 50], the IC50 was in the range of 100 to 1000 nM.

For `CCC(=O)C(C)n1c(C)cc(=O)n2cc(-c3ccc(Cl)cc3)nc12` (stereo not shown) [Compound 51], the IC50 lay in the range of 10 to 100 nM.

Consider `Cc1cc(=O)n2cc(-c3ccc(Cl)cc3)nc2n1Cc1ccccc1F` [Compound 53], for which the IC50 lay within 10 to 100 nM.

As to `Cc1cc(=O)n2cc(-c3ccc(Cl)cc3)nc2n1C(C)c1ccccc1` (stereo not shown) [Compound 54], the IC50 lay in the range of 10 to 100 nM.

Regarding `Cc1cc(=O)n2cc(-c3ccc(Cl)cc3)nc2n1CCC(F)=C(F)F` [Compound 55], the IC50 lay within 10 to 100 nM.

With `CCCC(C)n1c(C)cc(=O)n2cc(-c3ccc(Cl)cc3)nc12` (stereo not shown) [Compound 56], the IC50 is 10 to 100 nM.

Take `Cc1cc(=O)n2cc(-c3ccc(Cl)cc3)nc2n1CC1CCCC1` [Compound 57]: the IC50 is 10 to 100 nM.

As to `Cc1cc(=O)n2cc(-c3ccc(Cl)cc3)nc2n1CC1CCCCC1` [Compound 58], the IC50 lay in the range of 10 to 100 nM.

For `Cc1cc(=O)n2cc(-c3ccc(Cl)cc3)nc2n1CCCC(F)(F)F` [Compound 59], the IC50 is 10 to 100 nM.

Still in this test, the particulars now being: Inhibitory Activity (Enzyme Inhibitory Activity, IC50), Assay Method: Method B (Test Example 2).
Compound `CCCCCn1c(C)cc(=O)n2cc(-c3ccc(Cl)cc3)nc12` [Compound 3, 2-(4-chlorophenyl)-7-methyl-8-pentyl-imidazo[1,2-a]pyrimidin-5(8H)-one] had an IC50 of less than 10 nM.

`CCOC(=O)Cn1c(C)cc(=O)n2cc(-c3ccc(Cl)cc3)nc12` [Compound 20] had an IC50 of less than 10 nM.
